According to US7629317B2, “Control of growth and repair of gastro-intestinal tissues by gastrokines and inhibitors” (The University of Chicago, priority 2001, dated 2009):
Several values for one entry are separate records, joined by “and”; a condition that tells them apart may be missing. Equal entries are not always repeated. Entries after “also recorded” stand apart in the source; their conditions may differ.

Key:
Candida albicans = experiment: Growth of other bacteria and fungi; format: cell-based
Helicobacter pylori = experiment: Growth inhibition on a bacterial lawn (filter diffusion); format: cell-based; conditions: solution on filter
Procedure: To determine if AMP peptide inhibits growth of H. pylori, a lawn of bacteria was prepared on a culture dish. A small circular filter was placed in the center of the dish, a solution of a test agent was placed on the filter so it diffused onto the lawn, and its effect on bacterial growth around the filter was measured. AMP peptide 77-97 (SEQ ID NO: 12) (Table 1), a scrambled version of this AMP peptide (negative control) (SEQ ID NO: 19), or the antibiotic clarithromycin (positive control) was added to a filter on different cultures. […] In addition, AMP peptide could serve as a therapeutic agent to treat H. pylori infections in the stomach, and thereby prevent the capacity of this organism to cause gastritis, gastric ulcers, and gastric adenocarcinomas.

Enterococcus faecalis = experiment: Growth of other bacteria and fungi; format: cell-based
[1] = system: occludin, ZO-1, ZO-2, claudin-5, E-cadherin, JAM; experiment: Accumulation of tight and adherens junction proteins in C2 cells (immunoblot of insoluble fraction, confocal microscopy); format: cell-based, human
Aspergillus niger = experiment: Growth of other bacteria and fungi; format: cell-based
Acinetobacter baumanii = experiment: Growth of other bacteria and fungi; format: cell-based
IEC-18 cells = experiment: Growth of confluent cultures of IEC-18 cells (cell count); format: cell-based, rat; conditions: confluent IEC-18 cultures, FIG. 13; read-out: half-maximal concentration (K1/2) for growth stimulation
Procedure: Confluent cultures of IEC-18 cells were prepared. One day later, medium was aspirated and replaced with 5 ml of DMEM containing CS (0.5%) and insulin, without (control) or with mitogenic peptide 58-99 (8 μg/ml). Sister plates receiving 1 ml medium and different amounts of peptide 67-85 were incubated at 1 hr at 38° C. on a CO2 incubator, and then an additional 4 ml of medium was added to each dish. Peptide 58-99 was added to 2 of the 4-sister plates at each concentration of peptide 67-85, and the number of cells was counted. […] Stimulation of cell growth by mitogenic peptide 58-99 was completely abolished by preincubation of cells with 0.25 μg/ml of peptide 67-85. […] Values for the number of cells per culture are shown relative to multiplication of cells exposed to the vehicle during the same period.
Urea (6 M) was employed to release proteins from the insoluble fraction solubilize rhAMP-18 containing the His6-tag (SEQ ID NO: 16), and make it available to bind to the Ni^2+-charged resin from which it was subsequently eluted with a gradient of imidazole (0 to 200 mM). The amount of eluted rhAMP-18 was measured using the BCA assay, and the appearance of a single band at the predicted size of 19-20 kD was confirmed by SDS-PAGE followed by immunoblotting. To determine if eluted rhAMP-18 renatured to assume a structure that was mitogenic, aliquots of the eluate (following removal of urea and imidazole by dialysis) were added to cultures of IEC-18 cells and the number of cells was counted 4 days later. […] AMP peptide 77-97 refers to the mature protein; same as peptide 97-117 of human precursor protein: Table 1. These observations indicate that biologically active recombinant human AMP-18 that can be utilized in diverse clinical situations is available. The mitogenic potency of rhAMP-18 is in the nanomolar range which would be expected for a native gastric cell growth factor that participates in the maintenance and repair of the stomach in vivo.
(§1) To characterize the capacity of gastric and intestinal cells to respond to AMP-18, AGS gastric adenocarcinoma cells, HAE human gastric antrum mucosa primary cultures transformed with SV40 large T antigen, rat diploid small intestinal epithelial cells of the IEC-6 (FIG. 15) and IEC-18 lines, NCI N-87 gastric carcinoma cells, and SK-GT5 gastroesophageal adenocarcinoma cells were studied; human WI-38 fibroblasts and HeLa cells served as non-GI control cell lines. Mitogenesis was assayed by performing cell counts 3 to 4 days after exposing cells to the agent of interest, trypsinizing the culture to prepare single cells, and confirming this while counting them in a hemocytometer.

[2] = system: BSC-1 epithelial cell line; experiment: Growth (mitogenesis) assay on confluent BSC-1 cells, cells counted 4 days later; format: cell-based, monkey; conditions: compared with related peptides
Text: Finding that a 42-amino acid peptide representing a central region of the novel antrum mucosal cell protein AMP-18 had mitogenic activity similar in character to that of the intact protein in pig and mouse antrum extracts (Table 1), has facilitated the characterization of the bio-active region of the molecule. […] Growth activity determinations have so far been accomplished with the kidney epithelial cell line as well as several gastric and intestinal lines.
Non-transformed monkey kidney epithelial cell line BSC-1 and other epithelial cell lines were used to assess effects on growth. In general, conditions were chosen for each line such that cells are grown to confluence in plastic dishes in supplemented growth medium with minimal calf (or fetal) serum for growth (Lieske et al., 1997); BSC-1 cells become confluent at 10^6/60 mm dish with 1% calf serum. At the start of the growth assay the medium on the confluent culture was aspirated and replaced with fresh medium with minimal serum to maintain viability (0.01% for BSC-1) cells. AMP-18 preparations were added to the culture medium and 4 days later the cell monolayer was rinsed, detached with trypsin, and the cells were counted using a hemocytometer. Determination of the capacity of AMP-18 to initiate DNA synthesis was measured by the incorporation of [^3H]thymidine (Toback, 1980); to confirm the DNA synthesis assay, autoradiograms of leveled cells were counted (Kartha and Toback, 1985).

WI-38 fibroblasts = experiment: Growth of WI-38 fibroblasts (non-GI control); format: cell-based, human; conditions: peptide up to 8 μg/ml
Procedure: as §1

Pseudomonas aeruginosa = experiment: Growth of other bacteria and fungi; format: cell-based
SK-GT5 cells = experiment: Growth of SK-GT5 gastroesophageal adenocarcinoma cells; format: cell-based; conditions: concentration-dependent
Procedure: as §1

Escherichia coli = experiment: Growth of other bacteria and fungi; format: cell-based
Klebsiella pneumoniae = experiment: Growth of other bacteria and fungi; format: cell-based
IEC-6 cells = experiment: Growth of intestinal epithelial IEC-6 cells (cell count); format: cell-based, rat
Procedure: IEC-6 cells were grown in 60-mm dishes. […] Values are means±SE for 3 cultures.
as §1

AGS cells = experiment: Growth of gastric epithelial AGS cells (cell count four days later); format: cell-based, human
Procedure: as §1

LDALVKEKKLQGKGPGGPPPK [97–117, peptide 77-97 of the mature protein, same as 97-117 of the human precursor]
growth of Candida albicans (Candida albicans): did not alter the growth | growth of H. pylori lawn (Helicobacter pylori; listed as AMP peptide): inhibited growth | growth of H. pylori lawn (Helicobacter pylori; listed as AMP peptide 77-97): inhibited | growth of Enterococcus faecalis (Enterococcus faecalis): did not alter the growth | occludin immunoreactivity of peptide-treated cells exposed to DSS ([1]; DSS 4%, vehicle-treated declined about 50% at 1 hr, listed as AMP peptide): did not decline; also recorded: not reduced | perijunctional actin, confocal microscopy ([1]; oxidant (0.3 mM monochloramine) injury): protected | occludin immunoreactivity at cell junctions, confocal microscopy ([1]; pretreated prior to monochloramine 0.3 mM, vs untreated injured cells): more intense | growth of Aspergillus niger (Aspergillus niger): did not alter the growth | growth of Acinetobacter baumanii (Acinetobacter baumanii): did not alter the growth | EC50 (IEC-18 cells): ~300 nM | mitogenic activity (in words) ([2]; listed as peptide 97-107): equal to the 42-mer | mitogenic activity (in words) ([2]; listed as peptide 97-117): enhanced activity | growth stimulation of WI-38 fibroblasts (WI-38 fibroblasts): does not stimulate growth | growth stimulation of WI-38 fibroblasts (WI-38 fibroblasts; listed as AMP peptide): failure | growth of Pseudomonas aeruginosa (Pseudomonas aeruginosa): did not alter the growth | growth of SK-GT5 cells (SK-GT5 cells): stimulated | growth of Escherichia coli (Escherichia coli): did not alter the growth | growth of Klebsiella pneumoniae (Klebsiella pneumoniae): did not alter the growth | growth stimulation of IEC-6 cells (in words) (IEC-6 cells): stimulated growth in a concentration-dependent manner | concentration at near-maximal growth stimulation (IEC-6 cells; FIG. 15, center panel, listed as AMP peptide): 0.5 μg/ml and 0.23 μM | potency compared with EGF (IEC-6 cells; peptide 1 μg/ml vs EGF 50 ng/ml): more potent than EGF | growth stimulation together with EGF (AGS cells; peptide 77-97 8 μg/ml + EGF 50 ng/ml): additive | growth stimulation of AGS cells (in words) (AGS cells; peptide 77-97 8 μg/ml, EGF 50 ng/ml at saturating doses): stimulated growth; also recorded: mitogenic
